Assay results reported in publication PMC6838069, “Biochemical characterization and chemical validation of Leishmania MAP Kinase-3 as a potential drug target” (Scientific Reports, 2019).

Target: T1, LdMAPK3 (Leishmania donovani, UniProt A0A3S7WR45)
T1 construct: gene LdCL_100012100; pET-28a BamHI/HindIII, His6-tagged (~48 kDa on gel, tag not reported cut), E. coli BL21(DE3), Ni-NTA
T1 sequence (A0A3S7WR45 1-388): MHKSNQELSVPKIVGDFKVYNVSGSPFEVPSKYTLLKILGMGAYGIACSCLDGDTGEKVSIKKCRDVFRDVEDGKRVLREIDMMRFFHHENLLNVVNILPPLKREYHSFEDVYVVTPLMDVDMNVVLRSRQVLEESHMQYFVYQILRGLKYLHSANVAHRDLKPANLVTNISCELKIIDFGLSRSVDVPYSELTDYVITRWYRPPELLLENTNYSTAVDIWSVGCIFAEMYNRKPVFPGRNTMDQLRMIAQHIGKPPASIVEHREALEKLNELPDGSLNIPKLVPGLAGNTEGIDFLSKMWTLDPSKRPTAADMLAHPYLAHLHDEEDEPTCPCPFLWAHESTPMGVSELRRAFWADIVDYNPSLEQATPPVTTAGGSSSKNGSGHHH
Test: Kinase-Glo Plus luminescent ATP depletion; Dixon plot
Assay type: biochemical

Row | Compound | Ki [µM]
1 | O=c1c(-c2ccc(O)cc2)coc2cc(O)cc(O)c12 [GEN, genistein] | 3.76 ± 0.28
2 | O=c1cc(-c2ccccc2)oc2cc(O)cc(O)c12 [CHY, 5,7-dihydroxyflavone] | 8.75 ± 0.11
